One test deals with T1, histamine H3 receptor (Homo sapiens, UniProt Q9Y5N1).
T1 construct: expressed in transfected cells; host or cells: CHO K1 cells with pSwitch/pGeneH3 (GeneSwitch, mifepristone-induced), clone 3H3; membrane preparation
The test can be described thus: Histamine H3 functional antagonist assay (GTPγS, membranes). Conditions: CHO K1 membranes, [35S]-GTPγS, histamine at EC80; read-out: average pKi (pKb) at H3 (converted). It is filed as biochemical. On the procedure: The histamine H3 cDNA is isolated from its holding vector, pcDNA3.1 TOPO (InVitrogen), by restriction digestion of plasmid DNA with the enzymes BamH1 and Not-1 and is ligated into the inducible expression vector pGene (InVitrogen) digested with the same enzymes. The GeneSwitchTM system (a system where in transgene expression is switched off in the absence of an inducer and switched on in the presence of an inducer) is performed as described in U.S. Pat. Nos. 5,364,791; 5,874,534; and 5,935,934. Ligated DNA is transformed into competent DH5α E. coli host bacterial cells and is plated onto Luria Broth (LB) agar containing ZeocinTM (an antibiotic which allows the selection of cells expressing the sh ble gene which is present on pGene and pSwitch) at 50 μgml^-1. Colonies containing the re-ligated plasmid are identified by restriction analysis. DNA for transfection into mammalian cells is prepared from 250 ml cultures of the host bacterium containing the […]3 plasmid and is isolated using a DNA preparation kit (Qiagen Midi-Prep) as per manufacturers guidelines (Qiagen). CHO K1 cells previously transfected with the pSwitch regulatory plasmid (InVitrogen) are seeded at 2×10^6 cells per T75 flask in Complete Medium, containing Hams F12 (GIBCOBRL, Life Technologies) medium supplemented with 10% v/v dialysed foetal bovine serum, L-glutamine, and hygromycin (100 μgml^-1), 24 h prior to use. Plasmid DNA is transfected into the cells using Lipofectamine plus according to the manufacturer's guidelines (InVitrogen). 48 h post transfection, cells are placed into complete medium supplemented with 500 μgml^-1 ZeocinTM. 10-14 days post selection, 10 nM Mifepristone (InVitrogen) is added to the culture medium to induce the expression of the receptor. 18 h post induction, cells are detached from the flask using ethylenediamine tetra-acetic acid (EDTA; 1:5000; InVitrogen), following several washes with PBS, pH 7.4 and are resuspended in Sorting Medium containing Minimum Essential Medium (MEM), without phenol red, and are supplemented with Earles salts and 3% Foetal Clone II (Hyclone). Approximately 1×10^7 cells are examined for receptor expression by staining with a rabbit polyclonal antibody, 4a, raised against the N-terminal domain of the histamine H3 receptor, are incubated on ice for 60 min, followed by two washes in sorting medium. Receptor bound antibody is detected by incubation of the cells for 60 min on ice with a goat anti rabbit antibody, conjugated with Alexa 488 fluorescence marker (Molecular Probes). Following two further washes with Sorting Medium, cells are filtered through a 50 μm FilconTM (BD Biosciences) and then are analysed on a FACS Vantage SE Flow Cytometer fitted with an Automatic Cell Deposition Unit. Control cells are non-induced cells treated in an analogous manner. Positively stained cells are sorted as single cells into 96-well plates, containing Complete Medium containing 500 μgml^-1 ZeocinTM and are allowed to expand before reanalysis for receptor expression via antibody and ligand binding studies. One clone, 3H3, is selected for membrane preparation. All steps of the protocol are carried out at 4° C. and with pre-cooled reagents. The cell pellet is resuspended in 10 volumes of homogenisation buffer (50 mM N-2-hydroxyethylpiperazine-N'-2-ethanesulfonic acid (HEPES), 1 mM ethylenediamine tetra-acetic acid (EDTA), pH 7.4 with KOH, supplemented with 10^-6 M leupeptin (acetyl-leucyl-leucyl-arginal; Sigma L2884), 25 μgml^-1 bacitracin (Sigma B0125), 1 mM phenylmethylsulfonyl fluoride (PMSF) and 2×10^-6 M pepstain A (Sigma)). The cells are then homogenised by 2×15 sec bursts in a 1 L glass Waring blender, followed by centrifugation at 500 g for 20 min. The supernatant is then spun at 48,000 g for 30 min. The pellet is resuspended in homogenisation buffer (4× the volume of the original cell pellet) by vortexing for 5 sec, followed by homogenisation in a Dounce homogeniser (10-15 strokes). […]

A further test has as its target T2, human H1 receptor (Homo sapiens, UniProt P35367).
T2 construct: expressed in transfected cells
The test can be described thus: Histamine H1 functional antagonist assay: determination of functional pKi values (FLIPR). Conditions: CHO cells expressing human H1 receptor, histamine at EC80, read-out: average pKi (pKb) at H1 (converted). It is filed as cell-based. On the procedure: The human H1 receptor is cloned using known procedures described in the literature [Biochem. Biophys. Res. Commun., 201(2):894 (1994)]. Chinese hamster ovary (CHO) cells stably expressing the human H1 receptor are generated according to known procedures described in the literature [Br. J. Pharmacol., 117(6):1071 (1996)]. The histamine H1 cell line is seeded into non-coated black-walled clear bottom 384-well tissue culture plates in alpha minimum essential medium (Gibco/Invitrogen, cat no. 22561-021), supplemented with 10′)/0 dialysed foetal calf serum (Gibco/Invitrogen cat no. 12480-021) and 2 mM L-glutamine (Gibco/Invitrogen cat no 25030-024) and is maintained overnight at 5% CO2, 37° C. Excess medium is removed from each well to leave 10 μl. 30 μl loading dye (250 μM Brilliant Black, 2 μM Fluo-4 diluted in Tyrodes buffer+probenecid (145 mM NaCl, 2.5 mM KCl, 10 mM HEPES, 10 mM D-glucose, 1.2 mM MgCl2, 1.5 mM CaCl2, 2.5 mM probenecid, pH adjusted to 7.40 with NaOH 1.0 M)) is added to each well and the plates are incubated for 60 min at 5% CO2, 37° C. 10 μl of test compound, diluted to the required concentration in Tyrodes buffer+probenecid (or 10 μl Tyrodes buffer+probenecid as a control) is added to each well and the plate is incubated for 30 min at 37° C., 5% CO2. The plates are then placed into a FLIPR™(Molecular Devices, UK) to monitor cell fluorescence (λex=488 nm, λEM=540 nm) in the manner described in Sullivan et al., (In: Lambert DG (ed.), Calcium Signaling Protocols, New Jersey: Humana Press, 1999, 125-136) before and after the addition of 10 μl histamine at a concentration that results in the final assay concentration of histamine being EC80. Functional antagonism is indicated by a suppression of histamine induced increase in fluorescence, as measured by the FLIPR™ system (Molecular Devices). By means of concentration effect curves, functional affinities are determined using standard pharmacological mathematical analysis.

T2 sequence (P35367 whole entry): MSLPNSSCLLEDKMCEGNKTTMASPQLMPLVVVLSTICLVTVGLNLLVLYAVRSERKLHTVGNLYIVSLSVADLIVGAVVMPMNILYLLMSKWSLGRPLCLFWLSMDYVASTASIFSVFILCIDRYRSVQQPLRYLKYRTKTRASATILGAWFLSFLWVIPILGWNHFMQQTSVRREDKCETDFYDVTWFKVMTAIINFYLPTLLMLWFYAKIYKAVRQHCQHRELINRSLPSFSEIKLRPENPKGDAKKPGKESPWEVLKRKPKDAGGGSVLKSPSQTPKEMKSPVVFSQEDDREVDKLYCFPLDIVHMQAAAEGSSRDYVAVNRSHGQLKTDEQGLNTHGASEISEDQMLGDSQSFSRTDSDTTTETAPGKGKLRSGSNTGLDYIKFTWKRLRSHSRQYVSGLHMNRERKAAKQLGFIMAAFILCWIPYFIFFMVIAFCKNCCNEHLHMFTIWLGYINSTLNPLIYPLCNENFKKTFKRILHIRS
T1 sequence (Q9Y5N1 whole entry, species assumed): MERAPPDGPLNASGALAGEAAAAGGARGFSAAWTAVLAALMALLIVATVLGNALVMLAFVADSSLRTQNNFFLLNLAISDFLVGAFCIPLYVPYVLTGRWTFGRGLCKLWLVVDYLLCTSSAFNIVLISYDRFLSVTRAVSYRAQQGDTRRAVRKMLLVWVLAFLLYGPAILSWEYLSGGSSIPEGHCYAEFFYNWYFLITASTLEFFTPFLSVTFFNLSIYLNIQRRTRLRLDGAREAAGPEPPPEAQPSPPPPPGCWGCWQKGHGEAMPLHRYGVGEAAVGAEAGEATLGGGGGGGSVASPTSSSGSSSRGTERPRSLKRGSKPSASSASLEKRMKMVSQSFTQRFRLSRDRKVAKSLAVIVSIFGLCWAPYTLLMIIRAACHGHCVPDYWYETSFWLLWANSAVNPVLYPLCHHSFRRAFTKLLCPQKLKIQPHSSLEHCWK

`CCCCc1cc(OC2CCN(CCCCC(=O)NC(C)(C)C)CC2)c2ncccc2c1` [Example 30, 5-{4-[(6-butyl-8-quinolinyl)oxy]-1-piperidinyl}-N-(1,1-dimethylethyl) pentanamide]: the Ki is above 3160 nM on histamine H3 receptor and below 100 nM on human H1 receptor.

In the case of `CCCCCCc1cc(OC2CCN(C[C@H]3CC[C@H](C(=O)NCC(C)(C)C)CC3)CC2)c2ncccc2c1` [Example 52, trans-N-(2,2-dimethylpropyl)-4-({4-[(6-hexyl-8-quinolinyl)oxy]-1-piperidinyl}methyl)cyclohexane carboxamide], the Ki at histamine H3 receptor is above 316 nM; at human H1 receptor, below 100 nM.

With `CCCCc1cc(OC2CCN(CCCCNC(=O)CC)CC2)c2ncccc2c1` [Example 64, N-(4-{4-[(6-Butyl-8-quinolinyl)oxy]-1-piperidinyl}butyl)propanamide], the Ki on histamine H3 receptor was above 316 nM; at human H1 receptor it was below 10 nM.

As to `CCCCc1cc(O[C@@H]2CCN(CCC(=O)N(CC)CC)C2)c2ncccc2c1` [Example 35, 3-{(3R)-3-[(6-butyl-8-quinolinyl)oxy]-1-pyrrolidinyl}-N,N-diethylpropanamide], the Ki was above 316 nM at histamine H3 receptor and below 10 nM on human H1 receptor.

As to `CCCCCCc1cc(OC2CCN(C[C@H]3CC[C@H](C(=O)N(CC)CC)CC3)CC2)c2ncccc2c1` [Example 53, trans-N,N-diethyl-4-({4-[(6-hexyl-8-quinolinyl)oxy]-1-piperidinyl}methyl) cyclohexane carboxamide], the Ki was above 316 nM on histamine H3 receptor and below 100 nM on human H1 receptor.

Take `CCCCc1cc(OC2CCN(CCCC(=O)NC(C)(C)C)CC2)c2ncccc2c1` [Example 6, 4-{4-[(6-Butyl-8-quinolinyl)oxy]-1-piperidinyl}-N-(1,1-dimethylethyl)butanamide]: the Ki at histamine H3 receptor was above 316 nM; at human H1 receptor it was below 10 nM.

Turning to `CCCCc1cc(OC2CCN(C[C@H]3CC[C@H](C(=O)Nc4ccc(C)cc4)CC3)CC2)c2ncccc2c1` [Example 59, trans-4-({4-[(6-butyl-8-quinolinyl)oxy]-1-piperidinyl}methyl)-N-(4-methylphenyl) cyclohexane carboxamide], the Ki on histamine H3 receptor was above 316 nM; at human H1 receptor, below 100 nM.

`CCCCc1cc(OC2CCN(CC3CCCNC3=O)CC2)c2ncccc2c1` (stereo not shown) [Example 5, 3-({4-[(6-butyl-8-quinolinyl)oxy]-1-piperidinyl}methyl)-2-piperidinone]: the Ki on histamine H3 receptor is above 316 nM; on human H1 receptor it was below 10 nM.

`CCCCc1cc(OC2CCN(CCCCC(=O)NCCC)CC2)c2ncccc2c1` [Example 28, 5-{4-[(6-butyl-8-quinolinyl)oxy]-1-piperidinyl}-N-propylpentanamide]: the Ki at histamine H3 receptor is above 3160 nM; at human H1 receptor, below 10 nM.

Consider `CCCCc1cc(OC2CCN(CCCC(=O)NCCOC)CC2)c2ncccc2c1` [Example 23, 4-{4-[(6-butyl-8-quinolinyl)oxy]-1-piperidinyl}-N-[2-(methyloxy)ethyl] butanamide], for which the Ki on histamine H3 receptor was above 3160 nM; on human H1 receptor, below 10 nM.

In the case of `CCCCc1cc(O[C@@H]2CCN(CCC(=O)NC(C)(C)C)C2)c2ncccc2c1` [Example 36, 3-{(3R)-3-[(6-butyl-8-quinolinyl)oxy]-1-pyrrolidinyl}-N-(1,1-dimethylethyl) propanamide], the values for the Ki on histamine H3 receptor and on human H1 receptor were above 316 nM and below 10 nM, respectively.

On to `CCCCc1cc(OC2CCN(CCC(=O)N(CC)CC)CC2)c2ncccc2c1` [Example 7, 3-{4-[(6-Butyl-8-quinolinyl)oxy]-1-piperidinyl}-N,N-diethylpropanamide], for which the Ki at histamine H3 receptor is above 316 nM; on human H1 receptor it was below 10 nM.

Turning to `CCCCc1cc(O[C@@H]2CCN(CCCC(=O)NC(C)(C)C)C2)c2ncccc2c1` [Example 37, 4-{(3R)-3-[(6-butyl-8-quinolinyl)oxy]-1-pyrrolidinyl}-N-(1,1-dimethylethyl) butanamide], the Ki was above 316 nM at histamine H3 receptor and below 10 nM on human H1 receptor.

For the compound `CCCCc1cc(OC2CCN(CCC3CCN(C(C)=O)CC3)CC2)c2ncccc2c1` [Example 3, 8-({1-[2-(1-Acetyl-4-piperidinyl)ethyl]-4-piperidinyl}oxy)-6-butylquinoline], the Ki is above 316 nM at histamine H3 receptor and below 100 nM on human H1 receptor.

With `CCCCc1cc(OC2CCN(CCNC(=O)C3CCCCC3)CC2)c2ncccc2c1` [Example 75, N-(2-{4-[(6-butyl-8-quinolinyl)oxy]-1-piperidinyl}ethyl) cyclohexane carboxamide], the Ki on histamine H3 receptor is above 316 nM; on human H1 receptor it was below 10 nM.

Turning to `CCCCc1cc(OC2CCN(CCCCNC(=O)C(C)(C)C)CC2)c2ncccc2c1` [Example 67, N-(4-{4-[(6-butyl-8-quinolinyl)oxy]-1-piperidinyl}butyl)-2,2-dimethyl propanamide], the Ki was above 316 nM on histamine H3 receptor and below 10 nM at human H1 receptor.

As to `CCCCCCc1cc(OC2CCN(C[C@H]3CC[C@H](C(=O)NCCC(C)C)CC3)CC2)c2ncccc2c1` [Example 50, trans-4-({4-[(6-hexyl-8-quinolinyl)oxy]-1-piperidinyl}methyl)-N-(3-methylbutyl) cyclohexane carboxamide], the Ki was above 316 nM on histamine H3 receptor and below 100 nM on human H1 receptor.

Consider `CCCCc1cc(OC2CCN(CCCC(=O)NCCC)CC2)c2ncccc2c1` [Example 22, 4-{4-[(6-butyl-8-quinolinyl)oxy]-1-piperidinyl}-N-propylbutanamide], for which the Ki on histamine H3 receptor is above 3160 nM; at human H1 receptor, below 10 nM.

In the case of `CCCCc1cc(OC2CCN(CCCNC(=O)CCC)CC2)c2ncccc2c1` [Example 70, N-(3-{4-[(6-butyl-8-quinolinyl)oxy]-1-piperidinyl}propyl) butanamide], the Ki on histamine H3 receptor is above 316 nM; at human H1 receptor, below 10 nM.

Turning to `CCCCc1cc(OC2CCN(CCCCCNC(=O)CC)CC2)c2ncccc2c1` [Example 77, N-(5-{4-[(6-butyl-8-quinolinyl)oxy]-1-piperidinyl}pentyl) propanamide], the Ki was above 316 nM at histamine H3 receptor and below 10 nM on human H1 receptor.

(Values after patent US20100222349A1, “QUINOLINE DERIVATIVES USED TO TREAT INFLAMMATORY AND ALLERGIC DISEASES” (Glaxo Group Limited, priority 2007, published 2010).)
